Data as given in patent US20240226062A1, “METHODS AND COMPOSITIONS FOR THE TREATMENT OF DISORDERS CHARACTERIZED BY A KIDINS220 DYSFUNCTION IN A SUBJECT” (priority 2021, published 2024).
Each block holds one compound with its values, some of them ahead of it.

Key:
[1] = tested on: AQP4; assay: Effect of bafilomycin A1 on protein levels in WT and Kidins220^f/f astrocytes (immunofluorescence and immunoblot); assay type: cell-based, mouse; settings: for AQP4 levels: 100 nM bafilomycin A1 for 16 h
Procedure: (§1) Cell culture, treatment and transfection of primary cortical astrocytes, neurons and HEK293T cells. Mouse cortical astrocytes were prepared from cerebral cortices of 0 to 2-day-old mice pups according to standard methods. Cells seeded on plates or glass coverslips coated with poly-L-lysine (10 μg/ml) and laminin (4 μg/ml) at a density of 5×10^4 cells/cm2 in complete DMEM-F12. After 2 additional days (DIV14-16) astrocytes were treated with vehicle (DMSO), 100 nM bafilomycin Al (Sigma Co.; St. Louis, MO, USA) for 16 h or 10 μM R55 (MedKoo Biosciences, Inc.; Morrisville, NC, USA) for 48 h. Neuronal cultures were prepared from cerebral cortex of 19-day-old Wistar rat embryos, as we have previously described (Lopez-Menendez et al. 2019). Neurons were used after 10 days in vitro (DIV) for immunofluorescence and DIV14 for biochemical assays. Neurons were pretreated or treated for different times as indicated: 50 μM NMDA and 10 μM glycine (Sigma Co.; St. Louis, MO, USA); 200 μM DL-AP5 (Tocris; Bristol, UK); 5 μM R55. Excitotoxicity was induced by treatment with the NMDAR coagonists NMDA and glycine (referred as NMDA treatment). DL-AP5 or R55 were added 1 h or 48 h before NMDA treatment, respectively. HEK293T cells were cultured and transfected by standard procedures. HEK293T cells and DIV12-14 primary astrocytes were seeded at 50-60% confluence. Two days later cells were transfected in Opti-MEM by using 0.7 μl of Lipofectamine 2000@ reagent (ThermoFisher Scientific) and 0.7 μg of DNA per 24 multi-well plate, according to the manufacturer's specifications. Cells were fixed and processed for immunofluorescence or washed with PBS to prepare protein extracts for immunoprecipitation experiments.
Preparation of protein extracts, immunoprecipitation, and immunoblot analysis. Protein extracts from mice tissue, primary cell cultures or HEK293T cells were prepared in RIPA by standard methods. Briefly, cultured cells were lysed in RIPA buffer (25 mM Tris-HCl, pH 7.6, 1% Triton X-100, 0.5% sodium deoxycholate, 0.1% SDS, 150 mM NaCl) with protease and phosphatase inhibitors for 30 min at 4° C. Lysates were centrifuged for 30 min at 14,000 rpm at 4° C., and resulting supernatant was considered the total lysate soluble fraction. […] Equal amounts of total lysates or immunoprecipitates were resolved in SDS-PAGE and analysed by immunoblot. Membranes were incubated with different primary and secondary antibodies and immunoreactive bands were detected by ECL (PerkinElmer, Waltham, MA USA). […]
Quantitative and statistical analysis. Immunoblot signals were quantified by densitometric analysis with ImageJ 1.47d software (NIH) and normalized using β-actin, α-tubulin or GFAP band signal intensities. […]

[2] = tested on: SNX27-retromer; assay: Immunofluorescence of SNX27-retromer localization in primary cortical neurons under NMDA excitotoxicity; assay type: cell-based, rat
Procedure: as §1, with “μM […].” for “μM R55.”, “or […]” for “or R55”, “confluence. […]” for “confluence. Two days later cells were transfected in Opti-MEM by using 0.7 μl of Lipofectamine 2000@ reagent (ThermoFisher Scientific) and 0.7 μg of DNA per 24 multi-well plate, according to the manufacturer's specifications. Cells were fixed and processed for immunofluorescence or washed with PBS to prepare protein extracts for immunoprecipitation experiments.”

[3] = tested on: SNX27-retromer; assay: Immunoblot of NMDA-induced degradation of SNX27-retromer components and cargos in primary cortical neurons; assay type: cell-based, rat; settings: 50 μM NMDA and 10 μM glycine; DL-AP5 (200 μM) added 1 h or R55 (5 μM) 48 h before
Procedure: as §1
Preparation of protein extracts, immunoprecipitation, and immunoblot analysis. Protein extracts from mice tissue, primary cell cultures or HEK293T cells were prepared in RIPA by standard methods. Briefly, cultured cells were lysed in RIPA buffer (25 mM Tris-HCl, pH 7.6, 1% Triton X-100, 0.5% sodium deoxycholate, 0.1% SDS, 150 mM NaCl) with protease and phosphatase inhibitors for 30 min at 4° C. Lysates were centrifuged for 30 min at 14,000 rpm at 4° C., and resulting supernatant was considered the total lysate soluble fraction. Different mouse tissues were dissected, frozen in dry ice and homogenized in RIPA buffer as above using potter and Polytron homogenizers. For immunoprecipitation, total lysates were incubated with anti-VPS35 or anti-GFP antibody for 4 h at 4° C., before binding immunocomplexes to protein A sepharose beads for 1 h at 4° C. Beads were washed four times with RIPA buffer before adding Laemli sample buffer. Note that sample boiling was avoided to detect properly AQP4 band by immunoblots. Equal amounts of total lysates or immunoprecipitates were resolved in SDS-PAGE and analysed by immunoblot. Membranes were incubated with different primary and secondary antibodies and immunoreactive bands were detected by ECL (PerkinElmer, Waltham, MA USA). Immunoblot images have been cropped for presentation.
Quantitative and statistical analysis. Immunoblot signals were quantified by densitometric analysis with ImageJ 1.47d software (NIH) and normalized using β-actin, α-tubulin or GFAP band signal intensities. Data were expressed relative to values obtained in their respective untreated controls or WT mice or astrocytes. For immunofluorescence quantitative analysis of mice and human brain samples, fluorescence intensity of specific antibodies was measured at the ependymal barrier of lateral ventricles using ImageJ 1.47d software (NIH). Specific ROIs were defined in each brain section at the ependymal barrier boundaries, identified by DAPI staining of ependymal cell nuclei. In those regions, fluorescence signal above a certain threshold, stablished as background, was quantified. In the case of human brain necropsies, nine randomly selected ROIs were used for the analysis. […]

[4] = tested on: primary cortical neurons; settings: DL-AP5 preincubation; Lopez-Menendez et al. 2009; cited from earlier work
[5] = molecular target: T1, SNX27-retromer (Mus musculus, UniProt Q9EQH3+Q9QZ88); assay: Immunoblot of retromer complex and cargo protein levels in cultured astrocytes treated with R55; assay type: cell-based; settings: 10 μM R55 for 48 h
T1 construct: endogenous in cells; host or cells: primary mouse cortical astrocytes
Procedure: as §1, with “HEK293T cells were cultured and transfected by standard procedures. HEK293T cells and DIV12-14 primary astrocytes were seeded at 50-60% confluence. Two days later cells were transfected in Opti-MEM by using 0.7 μl of Lipofectamine 2000@ reagent (ThermoFisher Scientific) and 0.7 μg of DNA per 24 multi-well plate, according to the manufacturer's specifications. Cells were fixed and processed for immunofluorescence or washed with PBS to prepare protein extracts for immunoprecipitation experiments.” left out
Preparation of protein extracts, immunoprecipitation, and immunoblot analysis. […] Equal amounts of total lysates or immunoprecipitates were resolved in SDS-PAGE and analysed by immunoblot. Membranes were incubated with different primary and secondary antibodies and immunoreactive bands were detected by ECL (PerkinElmer, Waltham, MA USA). […]
Quantitative and statistical analysis. Immunoblot signals were quantified by densitometric analysis with ImageJ 1.47d software (NIH) and normalized using β-actin, α-tubulin or GFAP band signal intensities. […] For immunofluorescence quantitative analysis of mice and human brain samples, fluorescence intensity of specific antibodies was measured at the ependymal barrier of lateral ventricles using ImageJ 1.47d software (NIH). […] In those regions, fluorescence signal above a certain threshold, stablished as background, was quantified. […]

[6] = tested on: primary cortical neurons; assay: Neuronal viability under NMDAR-induced excitotoxicity (MTT reduction assay, MAP2 staining); assay type: cell-based, rat; settings: neurons incubated with NMDA for 6 h, R55 5 μM added 48 h before
Procedure: as §1, with “μM […].” for “μM R55.”, “or […]” for “or R55”, “confluence. […]” for “confluence. Two days later cells were transfected in Opti-MEM by using 0.7 μl of Lipofectamine 2000@ reagent (ThermoFisher Scientific) and 0.7 μg of DNA per 24 multi-well plate, according to the manufacturer's specifications. Cells were fixed and processed for immunofluorescence or washed with PBS to prepare protein extracts for immunoprecipitation experiments.”

[7] = tested on: trimeric Vps35-Vps29-Vps26 core; settings: Mecozzi et al. 2014; cited from earlier work
[8] = tested on: mouse model with plaques and tangles; settings: AD mouse model, Li et al. 2020; cited from earlier work
[9] = Kidins220^f/f deficient astrocytes, bafilomycin A1 treatment (not shown)

Structure (SMILES): CO/C1=C\C(C)=C\[C@@H](C)[C@@H](O)[C@@H](C)C/C(C)=C/C=C/[C@H](OC)[C@@H]([C@@H](C)[C@@H](O)[C@H](C)[C@@]2(O)C[C@@H](O)[C@H](C)[C@@H](C(C)C)O2)OC1=O [bafilomycin A1]
AQP4 levels ([1]; Kidins220^f/f astrocytes): significant increase
loss of SNX27 [1, 9]: not rescued
loss of VPS35 [1, 9]: not rescued
AQP4 levels ([1]; WT astrocytes): significant increase

Structure (SMILES): NC(CCCP(=O)(O)O)C(=O)O (racemic) [DL-AP5]
SNX27-retromer intracellular organization and colocalization of SNX27 and VPS35 (Pearson's correlation coefficient) ([2]; neurons pretreated 1 h with 200 μM DL-AP5, then 50 μM NMDA and 10 μM glycine): preserved
NMDA-induced degradation of FAM21 [3]: blocked
NMDA-induced degradation of GluN2B subunit of the NMDAR [3]: decreasing
NMDA-induced degradation of SNX27 [3]: blocked
NMDA-induced degradation of SNX27-retromer cargo Kidins220 [3]: decreasing
cleavage of the calpain substrate spectrin into breakdown products (BDPs) [3]: reduced
neuronal survival [4]: preserves

AQP4 content [5]: increased
Kidins220 levels [5]: mild effect on elevating
VPS35 levels [5]: mild effect on elevating
Structure (SMILES): Cl.Cl.N=C(N)SCc1ccc(CSC(=N)N)s1 [R55, thiophene-2,5-diylbis(methylene) dicarbamimidothioate dihydrochloride]
SNX27, FAM21 and VPS35 localization in endocytic vesicles ([2]; neurons pretreated 48 h with 5 μM R55, then excitotoxic NMDA): preserved
NMDA-induced degradation of FAM21 [3]: decreasing
NMDA-induced degradation of GluN2B subunit of the NMDAR [3]: decreasing
NMDA-induced degradation of SNX27 [3]: decreasing
NMDA-induced degradation of SNX27-retromer cargo Kidins220 [3]: decreasing
cleavage of the calpain substrate spectrin into breakdown products (BDPs) [3]: diminishment
neuroprotection (MAP2 immunofluorescence and MTT-viability assays) [6]: strong neuroprotection
retromer levels [7]: increased
retromer-mediated trafficking of cargos [7]: enhanced

Structure (SMILES): Cl.N=C(N)SCc1cccs1 [R33, thiophen-2-ylmethyl carbamimidothioate hydrochloride]
VPS35 levels [8]: elevation
amyloid-beta (Aβ) levels and deposition [8]: significant decrease
astrocytes activation [8]: less
learning and memory [8]: significant improvement
synaptic integrity [8]: improved
tau phosphorylation [8]: reduced
retromer levels [7]: increased
retromer-mediated trafficking of cargos [7]: enhanced
